Patent US20200187499A1, “SUBSTITUTED BENZYL-4-AMINOPICOLINIC ESTERS AND PYRIMIDINO-4-CARBOXYLIC ESTERS, METHODS FOR THE PRODUCTION THEREOF, AND USE THEREOF AS HERBICIDES AND PLANT GROWTH REGULATORS” (Bayer CropScience Aktiengesellschaft, priority 2017, published 2020)

Key:
Assay type in all cases: in vivo
[1] = test system: VIOTR; assay: Pre-emergence herbicidal action; settings: Table 2, pre-emergence (PE), 320 g/ha, scored after 3 weeks
In short: (§1)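 Weed seeds sown in sandy loam and covered with soil; compounds formulated as WP or EC applied to the covering soil surface as aqueous suspension/emulsion at 600 to 800 l/ha water plus 0.2% wetting agent. Greenhouse growth; damage scored visually after 3 weeks against untreated controls (100% = plants dead, 0% = like control).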

[2] = test system: SETVI; assay: Pre-emergence herbicidal action; settings: Table 2, pre-emergence (PE), 320 g/ha, scored after 3 weeks
In short: as §1

[3] = test system: ALOMY; assay: Pre-emergence herbicidal action; settings: Table 2, pre-emergence (PE), 320 g/ha, scored after 3 weeks
In short: as §1

[4] = test system: ABUTH; assay: Pre-emergence herbicidal action; settings: Table 2, pre-emergence (PE), 320 g/ha, scored after 3 weeks
In short: as §1

[5] = test system: AMARE; assay: Pre-emergence herbicidal action; settings: Table 2, pre-emergence (PE), 320 g/ha, scored after 3 weeks
In short: as §1

[6] = test system: POLCO; assay: Pre-emergence herbicidal action; settings: Table 2, pre-emergence (PE), 320 g/ha, scored after 3 weeks
In short: as §1

[7] = test system: ECHCG; assay: Pre-emergence herbicidal action; settings: Table 2, pre-emergence (PE), 320 g/ha, scored after 3 weeks
In short: as §1

[8] = test system: VIOTR; assay: Post-emergence herbicidal action; settings: Table 5, post-emergence (PO), 320 g/ha, assessed after about 3 weeks
In short: (§2)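 Visual % damage at ~3 weeks after spraying, rated against untreated controls (100% = plants dead, 0% = like control). Treatment: one-leaf stage, greenhouse, sandy loam; WP or EC formulation in water, 600 to 800 l/ha, 0.2% wetting agent.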

[9] = test system: PHBPU; assay: Post-emergence herbicidal action; settings: Table 5, post-emergence (PO), 320 g/ha, assessed after about 3 weeks
In short: as §2

[10] = test system: SETVI; assay: Post-emergence herbicidal action; settings: 320 g/ha, assessed after about 3 weeks
In short: as §2

[11] = test system: ABUTH; assay: Post-emergence herbicidal action; settings: 320 g/ha, assessed after about 3 weeks
In short: as §2

[12] = test system: AMARE; assay: Post-emergence herbicidal action; settings: 320 g/ha, assessed after about 3 weeks
In short: as §2

[13] = test system: STEME; assay: Post-emergence herbicidal action; settings: 320 g/ha, assessed after about 3 weeks
In short: as §2

[14] = test system: POLCO; assay: Post-emergence herbicidal action; settings: Table 5, post-emergence (PO), 320 g/ha, assessed after about 3 weeks
In short: as §2

[15] = test system: ECHCG; assay: Post-emergence herbicidal action; settings: Table 5, post-emergence (PO), 320 g/ha, assessed after about 3 weeks
In short: as §2

SMILES	Herbicidal action against VIOTR [1] [%]	Herbicidal action against SETVI [2] [%]	Herbicidal action against ALOMY [3] [%]	Herbicidal action against ABUTH [4] [%]	Herbicidal action against AMARE [5] [%]	Herbicidal action against POLCO [6] [%]	Herbicidal action against ECHCG [7] [%]	Herbicidal action against VIOTR [8] [%]	Herbicidal action against PHBPU [9] [%]	Herbicidal action against SETVI ([10]; Table 5, post-emergence (PO)) [%]	Herbicidal action against ABUTH ([11]; Table 5, post-emergence (PO)) [%]	Herbicidal action against AMARE ([12]; Table 5, post-emergence (PO)) [%]	Herbicidal action against STEME ([13]; Table 5, post-emergence (PO)) [%]	Herbicidal action against POLCO [14] [%]	Herbicidal action against ECHCG [15] [%]	Herbicidal action against SETVI ([10]; Table 6, post-emergence (PO)) [%]	Herbicidal action against ABUTH ([11]; Table 6, post-emergence (PO)) [%]	Herbicidal action against AMARE ([12]; Table 6, post-emergence (PO)) [%]	Herbicidal action against STEME ([13]; Table 6, post-emergence (PO)) [%]
Nc1cc(-c2ccc3ccsc3c2)nc(C(=O)OCc2ccccc2F)c1Cl [Example I-01]	70	90	60	80	100	100	100	50	90	80	100	100	100	100	90	–	–	–	–
Nc1cc(-c2ccc3ccoc3c2)nc(C(=O)OCc2cccc(F)c2)c1Cl [Example I-02]	70	90	80	30	100	100	100	70	70	100	90	100	100	100	90	–	–	–	–
COc1ccc(COC(=O)c2nc(-c3ccc4ccoc4c3)c(F)c(N)c2Cl)cc1 [Example I-03]	90	40	20	80	100	50	90	100	40	90	100	100	100	40	100	–	–	–	–
Nc1c(F)c(-c2ccc3ccoc3c2)nc(C(=O)OCc2ccc(F)cc2)c1Cl [Example I-04]	40	70	40	90	100	50	90	50	40	90	100	100	100	80	100	–	–	–	–
Nc1cc(-c2ccc3occc3c2)nc(C(=O)OCc2ccc(F)cc2)c1Cl [Example I-05]	50	90	30	50	90	90	90	90	80	100	100	100	100	30	100	–	–	–	–
Nc1cc(-c2ccc3ccsc3c2)nc(C(=O)OCc2ccc(F)cc2)c1Cl [Example I-07, 4-fluorobenzyl 4-amino-6-(1-benzothiophen-6-yl)-3-chloropyridine-2-carboxylate]	50	90	90	80	100	100	100	60	80	100	100	100	0	80	90	–	–	–	–
Nc1cc(-c2ccc3sccc3c2)nc(C(=O)OCc2cccc(F)c2)c1Cl [Example I-09]	60	90	20	70	90	90	100	90	80	90	100	100	100	70	100	–	–	–	–
Nc1cc(-c2ccc3occc3c2)nc(C(=O)OCc2ccc(C(F)(F)F)cc2)c1Cl [Example I-36]	0	90	50	90	100	90	90	–	–	–	–	–	–	–	–	80	100	100	100
